Reference: patent publication US9777001B2 (priority 2014, dated 2017)
pKi: −log10 of the molar value. Counter-ions that a name gives are not always drawn.

Columns and labels:
[1] = molecular target: human plasma kallikrein (Homo sapiens, UniProt P03952); assay: biochemical; settings: purified human plasma kallikrein, substrate S-2302, sodium phosphate buffer pH 7.5
[2] = molecular target: human Factor XIa (Homo sapiens, UniProt P03951); assay: biochemical; settings: purified human Factor XIa, substrate S-2366, HEPES buffer pH 7.4
Chain of human Factor XIa (P03951 388-625 limits assumed): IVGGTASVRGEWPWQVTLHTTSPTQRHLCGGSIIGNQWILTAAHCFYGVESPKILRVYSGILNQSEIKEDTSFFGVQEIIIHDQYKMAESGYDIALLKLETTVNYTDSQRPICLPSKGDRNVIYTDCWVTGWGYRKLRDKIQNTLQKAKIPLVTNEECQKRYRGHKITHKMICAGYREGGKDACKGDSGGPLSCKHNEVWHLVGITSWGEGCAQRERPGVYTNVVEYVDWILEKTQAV
Chain of human Factor XIa (P03951 19-387 partner limits assumed): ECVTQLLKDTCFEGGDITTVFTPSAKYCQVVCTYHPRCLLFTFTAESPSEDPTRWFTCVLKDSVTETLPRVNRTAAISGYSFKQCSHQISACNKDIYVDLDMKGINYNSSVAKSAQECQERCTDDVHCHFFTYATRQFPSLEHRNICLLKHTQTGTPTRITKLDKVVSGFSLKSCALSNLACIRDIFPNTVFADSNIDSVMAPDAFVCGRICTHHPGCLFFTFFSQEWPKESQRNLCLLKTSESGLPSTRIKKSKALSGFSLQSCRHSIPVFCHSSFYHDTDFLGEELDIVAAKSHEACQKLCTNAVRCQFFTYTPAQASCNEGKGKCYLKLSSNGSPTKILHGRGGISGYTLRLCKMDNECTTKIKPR

Chain of human plasma kallikrein (P03952 391-638 limits assumed): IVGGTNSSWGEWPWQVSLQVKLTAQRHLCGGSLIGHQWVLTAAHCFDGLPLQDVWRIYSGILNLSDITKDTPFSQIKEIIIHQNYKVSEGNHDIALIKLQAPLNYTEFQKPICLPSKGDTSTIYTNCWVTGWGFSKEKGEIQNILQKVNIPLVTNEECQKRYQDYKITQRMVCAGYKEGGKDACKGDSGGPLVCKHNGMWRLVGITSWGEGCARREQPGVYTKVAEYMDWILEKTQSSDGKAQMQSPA
Chain of human plasma kallikrein (P03952 20-390 partner limits assumed): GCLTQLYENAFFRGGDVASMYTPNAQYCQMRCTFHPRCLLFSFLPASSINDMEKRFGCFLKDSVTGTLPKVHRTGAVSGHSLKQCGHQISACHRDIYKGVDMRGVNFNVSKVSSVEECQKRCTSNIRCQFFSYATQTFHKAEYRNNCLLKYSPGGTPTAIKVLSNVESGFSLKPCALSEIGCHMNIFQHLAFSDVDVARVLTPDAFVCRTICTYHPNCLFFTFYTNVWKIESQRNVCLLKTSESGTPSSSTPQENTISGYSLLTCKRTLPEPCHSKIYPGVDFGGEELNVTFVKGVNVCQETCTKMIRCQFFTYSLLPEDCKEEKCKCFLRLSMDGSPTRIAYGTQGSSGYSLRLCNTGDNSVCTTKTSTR

Row | Structure (SMILES) | pKi [1] | pKi [2]
1 | C[C@@H]1CCC[C@H](n2cnc(-c3cc(Cl)ccc3-n3cc(C(F)(F)F)nn3)cc2=O)c2cc(ccn2)-c2ccc(CO)cc2NC1=O [Example 37, (10R,14S)-14-(4-{5-chloro-2-[4-(trifluoromethyl)-1H-1,2,3-triazol-1-yl]phenyl}-6-oxo-1,6-dihydropyrimidin-1-yl)-5-(hydroxymethyl)-10-methyl-8,16-diazatricyclo[13.3.1.0^2,7]nonadeca-1(19),2(7),3,5,15,17-hexaen-9-one trifluoroacetate] | 7.74 | 9.74
2 | COC(=O)c1ccc(Cl)cc1-c1cc(=O)n([C@H]2CCC[C@@H](C)C(=O)Nc3ccc(F)cc3-c3ccnc2c3)cn1 [Example 68, methyl 4-chloro-2-{1-[(10R,14S)-4-fluoro-10-methyl-9-oxo-8,16-diazatricyclo[13.3.1.0^2,7]nonadeca-1(19),2(7),3,5,15,17-hexaen-14-yl]-6-oxo-1,6-dihydropyrimidin-4-yl}benzoate] |  | 7.41
3 | C[C@@H]1CCC[C@H](n2cnc(-c3cc(Cl)ccc3-n3cc(C#N)nn3)cc2=O)c2cc(ccn2)-c2ccc(C(F)F)cc2NC1=O [Example 70, 1-(4-chloro-2-{1-[(10R,14S)-5-(difluoromethyl)-10-methyl-9-oxo-8,16-diazatricyclo[13.3.1.0^2,7]nonadeca-1(19),2(7),3,5,15,17-hexaen-14-yl]-6-oxo-1,6-dihydropyrimidin-4-yl}phenyl)-1H-1,2,3-triazole-4-carbonitrile] |  | 9.59
4 | C[C@@H]1CCC[C@H](n2cnc(-c3cc(Cl)ccc3-n3cc(C(F)(F)F)nn3)cc2=O)c2cc(ccn2)-c2ccc(C(N)=O)cc2NC1=O [Example 76, (10R,14S)-14-(4-{5-chloro-2-[4-(trifluoromethyl)-1H-1,2,3-triazol-1-yl]phenyl}-6-oxo-1,6-dihydropyrimidin-1-yl)-10-methyl-9-oxo-8,16-diazatricyclo [13.3.1.0^2,7]nonadeca-1(19),2(7),3,5,15,17-hexaene-5-carboxamide] | 7.44 | 9.36
5 | Cc1ccc2c(c1)NC(=O)[C@H](C)CCC[C@H](n1cnc(-c3cc(Cl)ccc3-n3cc(C(F)(F)F)nn3)cc1=O)c1cc-2ccn1 [Example 78, (10R,14S)-14-(4-{5-chloro-2-[4-(trifluoromethyl)-1H-1,2,3-triazol-1-yl]phenyl}-6-oxo-1,6-dihydropyrimidin-1-yl)-5,10-dimethyl-8,16-diazatricyclo [13.3.1.0^2,7]nonadeca-1(19),2(7),3,5,15,17-hexaen-9-one] |  | 9.38
6 | C[C@@H]1CCC[C@H](n2cnc(-c3cc(Cl)ccc3-n3cc(Cl)nn3)cc2=O)c2cc(ccn2)-c2ccc(O)cc2NC1=O [Example 85, (10R,14S)-14-{4-[5-chloro-2-(4-chloro-1H-1,2,3-triazol-1-yl)phenyl]-6-oxo-1,6-dihydropyrimidin-1-yl}-5-hydroxy-10-methyl-8,16-diazatricyclo[13.3.1.0^2,7]nonadeca-1(19),2(7),3,5,15,17-hexaen-9-one trifluoroacetate] |  | 10.00
7 | C[C@@H]1CCC[C@H](n2cnc(-c3cc(Cl)ccc3-n3cc(Cl)nn3)cc2=O)c2cc(ccn2)-c2ccc(C(F)(F)C(N)=O)cc2NC1=O [Example 90, 2-[(10R,14S)-14-{4-[5-chloro-2-(4-chloro-1H-1,2,3-triazol-1-yl)phenyl]-6-oxo-1,6-dihydropyrimidin-1-yl}-10-methyl-9-oxo-8,16-diazatricyclo[13.3.1.0^2,7]nonadeca-1(19),2(7),3,5,15,17-hexaen-5-yl]-2,2-difluoroacetamide trifluoroacetate] |  | 8.15
8 | C[C@@H]1CCC[C@H](n2cnc(-c3cc(Cl)ccc3-n3cc(C(F)(F)F)nn3)cc2=O)c2cc(ccn2)-c2c(Cl)cccc2NC1=O [Example 105, (10R,14S)-3-chloro-14-(4-{5-chloro-2-[4-(trifluoromethyl)-1H-1,2,3triazol-1-yl]phenyl}-6-oxo-1,6-dihydropyrimidin-1-yl)-10-methyl-8,16-diazatricyclo[13.3.1.0^2,7]nonadeca-1(19),2(7),3,5,15,17-hexaen-9-one] |  | 9.39
9 | C[C@@H]1CCC[C@H](n2cnc(-c3cc(Cl)ccc3-c3csnn3)cc2=O)c2cc(ccn2)-c2cc(F)ccc2NC1=O [Example 117, (10R,14S)-14-{4-[5-chloro-2-(1,2,3-thiadiazol-4-yl)phenyl]-6-oxo-1,6-dihydropyrimidin-1-yl}-4-fluoro-10-methyl-8,16-diazatricyclo[13.3.1.0^2,7]nonadeca-1(19),2(7),3,5,15,17-hexaen-9-one] |  | 8.57
10 | C[C@@H]1CCC[C@H](n2cnc(-c3cc(Cl)cc4cnn(C)c34)cc2=O)c2cc(ccn2)-c2ccccc2NC1=O [Example 119, (10R,14S)-14-[4-(5-chloro-1-methyl-1H-indazol-7-yl)-6-oxo-1,6-dihydropyrimidin-1-yl]-10-methyl-8,16-diazatricyclo[13.3.1.0^2,7]nonadeca-1(19),2(7),3,5,15,17-hexaen-9-one] |  | 7.00
11 | C[C@@H]1CCC[C@H](n2cnc(-c3c(-n4cc(C(F)F)nn4)ccc(Cl)c3F)cc2=O)c2cc(ccn2)-c2cc(F)ccc2NC1=O [Example 134, (10R,14S)-14-(4-{3-chloro-6-[4-(difluoromethyl)-1H-1,2,3-triazol-1-yl]-2-fluorophenyl}-6-oxo-1,6-dihydropyrimidin-1-yl)-4-fluoro-10-methyl-8,16-diazatricyclo [13.3.1.0^2,7]nonadeca-1(19),2(7),3,5,15,17-hexaen-9-one trifluoroacetate] |  | 9.80
12 | C[C@@H]1CCC[C@H](n2cnc(-c3cc(Cl)ccc3-n3cc(Cl)nn3)cc2=O)c2cc(ccn2)-c2cc(F)ccc2NC1=O [Example 140, (10R,14S)-14-{4-[5-chloro-2-(4-chloro-1H-1,2,3-triazol-1-yl)phenyl]-6-oxo-1,6-dihydropyrimidin-1-yl}-4-fluoro-10-methyl-8,16-diazatricyclo[13.3.1.0^2,7]nonadeca-1(19),2(7),3,5,15,17-hexaen-9-one trifluoroacetate] |  | 10.00
13 | C[C@@H]1CCC[C@H](n2cnc(-c3c(C(F)(F)F)ccc(Cl)c3F)cc2=O)c2cc(ccn2)-c2cc(F)ccc2NC1=O [Example 143, (10R,14S)-14-{4-[3-chloro-2-fluoro-6-(trifluoromethyl)phenyl]-6-oxo-1,6-dihydropyrimidin-1-yl}-4-fluoro-10-methyl-8,16-diazatricyclo[13.3.1.0^2,7]nonadeca-1(19),2(7),3,5,15,17-hexaen-9-one trifluoroacetate] |  | 7.77
14 | C[C@@H]1CCC[C@H](n2cnc(-c3cc(Cl)ccc3-n3cc(C#N)nn3)cc2=O)c2cc(ccn2)-c2cc(F)ccc2NC1=O [Example 148, 1-(4-chloro-2-{1-[(10R,14S)-4-fluoro-10-methyl-9-oxo-8,16-diazatricyclo [13.3.1.0^2,7]nonadeca-1(19),2(7),3,5,15,17-hexaen-14-yl]-6-oxo-1,6-dihydropyrimidin-4-yl}phenyl)-1H-1,2,3-triazole-4-carbonitrile trifluoroacetate] |  | 10.00
15 | COc1ccc(Cl)cc1-c1cc(=O)n([C@H]2CCC[C@@H](C)C(=O)Nc3ccc(F)cc3-c3ccnc2c3)cn1 [Example 150, (10R,14S)-14[4-(5-chloro-2-methoxyphenyl)-6-oxo-1,6-dihydropyrimidin-1-yl]-4-fluoro-10-methyl-8,16-diazatricyclo[13.3.1.0^2,7]nonadeca-1(19),2(7),3,5,15,17-hexaen-9-one trifluoroacetate] |  | 6.51
